# From patent US9745320B2, “Five-and-six-membered heterocyclic compound, and preparation method, pharmaceutical composition and use thereof” (SHANGHAI CHEMEXPLORER CO., LTD., priority 2013, dated 2017)
# Like-named read-outs stand apart in the source and are kept apart here.
# Key:
# Type in all cases: biochemical
# [1] = target: JAK1 (Homo sapiens, UniProt P23458); assay: JAK 1 enzymatic inhibitory activity IC50 assay (Caliper conversion rate); details: Km ATP, 28° C., 1 hour
# In short: (§1)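 Human JAK1 or JAK2 enzyme was preincubated with graded compound (2% DMSO) in HEPES pH 7.5/Brij-35/DTT buffer (JAK1 also with Triton), then peptide substrate, 10 mM MgCl2 and ATP at Km were added. Reactions ran 1 hour at 28° C; Caliper conversion rate gave inhibition, averaged over two tests, for IC50.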
# [2] = target: JAK2 (Homo sapiens, UniProt O60674); assay: JAK 2 enzymatic inhibitory activity IC50 assay (Caliper conversion rate); details: Km ATP, 28° C., 1 hour
# Chain of JAK2 (O60674 whole entry, species assumed): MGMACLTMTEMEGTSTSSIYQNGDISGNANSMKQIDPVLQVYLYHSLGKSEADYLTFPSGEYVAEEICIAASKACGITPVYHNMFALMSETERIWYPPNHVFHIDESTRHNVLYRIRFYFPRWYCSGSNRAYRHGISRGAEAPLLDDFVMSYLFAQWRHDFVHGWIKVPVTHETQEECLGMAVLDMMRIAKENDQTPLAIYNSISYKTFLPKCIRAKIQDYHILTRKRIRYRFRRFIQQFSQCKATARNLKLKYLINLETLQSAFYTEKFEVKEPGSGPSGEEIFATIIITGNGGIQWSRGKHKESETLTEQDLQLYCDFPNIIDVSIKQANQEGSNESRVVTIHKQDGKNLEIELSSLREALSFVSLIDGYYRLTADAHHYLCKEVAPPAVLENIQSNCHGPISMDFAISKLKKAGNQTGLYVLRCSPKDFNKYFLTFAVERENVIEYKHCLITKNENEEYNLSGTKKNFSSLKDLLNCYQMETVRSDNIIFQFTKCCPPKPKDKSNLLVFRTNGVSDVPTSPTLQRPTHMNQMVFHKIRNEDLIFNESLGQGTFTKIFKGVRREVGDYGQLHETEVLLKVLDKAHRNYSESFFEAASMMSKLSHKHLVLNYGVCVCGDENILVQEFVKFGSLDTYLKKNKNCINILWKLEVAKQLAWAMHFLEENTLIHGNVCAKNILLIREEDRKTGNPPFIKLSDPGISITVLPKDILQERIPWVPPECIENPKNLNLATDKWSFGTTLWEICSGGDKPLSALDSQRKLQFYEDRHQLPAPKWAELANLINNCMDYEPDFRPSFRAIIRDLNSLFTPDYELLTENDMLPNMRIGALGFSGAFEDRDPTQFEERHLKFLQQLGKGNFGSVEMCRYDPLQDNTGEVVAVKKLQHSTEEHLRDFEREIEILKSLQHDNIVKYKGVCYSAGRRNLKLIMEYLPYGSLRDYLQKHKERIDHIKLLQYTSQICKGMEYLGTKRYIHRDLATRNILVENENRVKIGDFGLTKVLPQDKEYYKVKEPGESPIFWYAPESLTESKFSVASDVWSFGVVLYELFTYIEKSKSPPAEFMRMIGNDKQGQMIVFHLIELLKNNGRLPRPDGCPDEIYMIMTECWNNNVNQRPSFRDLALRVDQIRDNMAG
# In short: as §1
# [3] = target: T1, JAK3 (Homo sapiens, UniProt P52333); assay: JAK 3 enzymatic inhibitory activity IC50 assay (Caliper conversion rate)
# T1 sequence (P52333 1-1124): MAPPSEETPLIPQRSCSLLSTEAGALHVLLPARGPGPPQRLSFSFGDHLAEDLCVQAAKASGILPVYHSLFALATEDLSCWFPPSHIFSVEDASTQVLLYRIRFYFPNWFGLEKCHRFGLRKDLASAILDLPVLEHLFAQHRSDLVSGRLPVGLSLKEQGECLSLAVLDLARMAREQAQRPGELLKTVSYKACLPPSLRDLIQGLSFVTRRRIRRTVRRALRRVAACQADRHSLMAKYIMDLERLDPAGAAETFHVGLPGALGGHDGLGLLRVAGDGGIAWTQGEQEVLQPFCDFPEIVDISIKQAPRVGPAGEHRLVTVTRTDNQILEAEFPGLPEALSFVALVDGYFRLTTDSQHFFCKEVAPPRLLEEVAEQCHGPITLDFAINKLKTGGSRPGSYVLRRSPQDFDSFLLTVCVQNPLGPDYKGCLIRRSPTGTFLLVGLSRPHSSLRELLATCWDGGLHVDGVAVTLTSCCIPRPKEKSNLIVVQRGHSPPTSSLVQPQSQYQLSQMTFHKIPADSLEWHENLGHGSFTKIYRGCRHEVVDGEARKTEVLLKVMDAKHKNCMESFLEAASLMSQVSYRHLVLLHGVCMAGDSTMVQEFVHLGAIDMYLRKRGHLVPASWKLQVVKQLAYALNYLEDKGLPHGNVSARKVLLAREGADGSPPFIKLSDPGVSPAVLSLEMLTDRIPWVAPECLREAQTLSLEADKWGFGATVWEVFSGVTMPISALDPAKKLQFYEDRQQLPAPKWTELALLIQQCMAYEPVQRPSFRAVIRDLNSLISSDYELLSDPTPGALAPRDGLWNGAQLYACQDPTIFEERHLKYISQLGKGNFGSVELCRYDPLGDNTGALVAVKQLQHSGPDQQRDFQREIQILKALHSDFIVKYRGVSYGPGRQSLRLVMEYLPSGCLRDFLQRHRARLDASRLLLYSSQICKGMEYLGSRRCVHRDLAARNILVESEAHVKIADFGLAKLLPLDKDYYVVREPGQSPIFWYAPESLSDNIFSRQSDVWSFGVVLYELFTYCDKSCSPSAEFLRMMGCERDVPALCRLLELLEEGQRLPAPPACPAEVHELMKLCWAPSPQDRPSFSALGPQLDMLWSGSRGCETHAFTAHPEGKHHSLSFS
# [4] = Km ATP, 28° C., 1 hour, read-out: JAK 3 enzymatic inhibitory activity IC50
# Chain of JAK1 (P23458 whole entry, species assumed): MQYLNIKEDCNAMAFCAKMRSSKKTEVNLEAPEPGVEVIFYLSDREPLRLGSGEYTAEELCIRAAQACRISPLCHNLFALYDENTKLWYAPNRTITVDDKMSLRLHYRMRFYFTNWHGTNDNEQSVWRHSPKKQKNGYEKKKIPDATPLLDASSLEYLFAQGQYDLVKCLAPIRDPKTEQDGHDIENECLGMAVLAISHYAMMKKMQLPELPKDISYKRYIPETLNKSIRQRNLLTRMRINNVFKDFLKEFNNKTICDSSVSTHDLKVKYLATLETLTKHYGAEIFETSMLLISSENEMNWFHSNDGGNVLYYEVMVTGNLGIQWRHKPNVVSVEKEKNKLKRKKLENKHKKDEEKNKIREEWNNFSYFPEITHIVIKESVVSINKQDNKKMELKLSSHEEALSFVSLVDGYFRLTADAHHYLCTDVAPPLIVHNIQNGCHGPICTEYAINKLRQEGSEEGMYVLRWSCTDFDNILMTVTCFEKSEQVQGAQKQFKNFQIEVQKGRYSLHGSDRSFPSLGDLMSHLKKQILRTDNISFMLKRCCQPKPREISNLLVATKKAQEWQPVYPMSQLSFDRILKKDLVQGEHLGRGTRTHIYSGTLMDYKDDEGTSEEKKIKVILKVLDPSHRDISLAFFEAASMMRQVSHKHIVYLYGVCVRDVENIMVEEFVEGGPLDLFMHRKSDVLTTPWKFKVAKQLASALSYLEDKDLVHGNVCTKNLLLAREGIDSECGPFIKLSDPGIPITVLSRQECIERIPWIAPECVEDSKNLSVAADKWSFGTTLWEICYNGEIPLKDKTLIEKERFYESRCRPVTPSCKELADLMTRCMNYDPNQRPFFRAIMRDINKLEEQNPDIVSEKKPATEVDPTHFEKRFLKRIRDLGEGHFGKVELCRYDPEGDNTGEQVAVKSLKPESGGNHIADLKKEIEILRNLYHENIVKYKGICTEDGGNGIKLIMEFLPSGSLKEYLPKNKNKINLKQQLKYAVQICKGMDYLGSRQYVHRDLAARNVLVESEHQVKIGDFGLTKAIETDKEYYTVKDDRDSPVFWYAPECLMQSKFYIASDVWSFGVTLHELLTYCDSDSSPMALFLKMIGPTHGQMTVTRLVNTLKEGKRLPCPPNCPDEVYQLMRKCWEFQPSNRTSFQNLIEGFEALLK
SMILES,IC50 [1] [nM],IC50 [2] [nM],IC50 [3] [nM],"IC50 [3, 4] [nM]"
"CCS(=O)(=O)N1CC(CC#N)(n2cc(-c3cc(Nc4ccccc4)nc4ccnn34)cn2)C1 [Compound T-55, 2-(1-(Ethylsulfonyl)-3-(4-(5-(phenylamino)pyrazolo[1,5-a]pyrimidin-7-yl)-1H-pyrazol-1-yl)azetidin-3-yl)acetonitrile]",> 1000,> 1000,> 1000,
"N#Cc1ccc(-c2nc(Nc3ccccc3)nc3ccsc23)cc1F [Compound T-56, 2-Fluoro-4-(2-(phenylamino)thieno[3,2-d]pyrimidin-4-yl)benzonitrile]",> 1000,> 1000,,> 1000
"CCS(=O)(=O)N1CC(CC#N)(n2cc(-c3nc(Nc4ccc5[nH]ncc5c4)nc4ccsc34)cn2)C1 [Compound T-57, 2-(3-(4-(2-((1H-Indazol-5-yl)amino)thieno[3,2-d]pyrimidin-4-yl)-1H-pyrazol-1-yl)-1-(ethylsulfonyl)azetidin-3-yl)acetonitrile]",50 to 500,< 50,,50 to 500
"CCS(=O)(=O)N1CC(CC#N)(n2cc(-c3nc(Nc4ccc5[nH]cnc5c4)nc4ccsc34)cn2)C1 [Compound T-58, 2-(3-(4-(2-((1H-Benzo[d]imidazol-5-yl)amino)thieno[3,2-d]pyrimidin-4-yl)-1H-pyrazol-1-yl)-1-(ethylsulfonyl)azetidin-3-yl)acetonitrile]",< 50,< 50,,50 to 500
"CCS(=O)(=O)N1CC(CC#N)(n2cc(-c3nc(Nc4ccc(-n5cnnn5)cc4)nc4ccsc34)cn2)C1 [Compound T-59, 2-(3-(4-(2-((4-(1H-Tetrazol-1-yl)phenyl)amino)thieno[3,2-d]pyrimidin-4-yl)-1H-pyrazol-1-yl)-1-(ethylsulfonyl)azetidin-3-yl)acetonitrile]",< 50,< 50,,50 to 500
"CCS(=O)(=O)N1CC(CC#N)(n2cc(-c3nc(Nc4cnn(CCCN5CCOCC5)c4)nc4ccsc34)cn2)C1 [Compound T-60, 2-(1-(Ethylsulfonyl)-3-(4-(2-((1-(3-morpholinopropyl)-1H-pyrazol-4-yl)amino)thieno[3,2-d]pyrimidin-4-yl)-1H-pyrazol-1-yl)azetidin-3-yl)acetonitrile]",< 50,< 50,,< 50
"CCS(=O)(=O)N1CC(CC#N)(n2cc(-c3nc(Nc4cnn(CCCc5nn[nH]n5)c4)nc4ccsc34)cn2)C1 [Compound T-61, 2-(3-(4-(2-((1-(3-(2H-Tetrazol-5-yl)propyl)-1H-pyrazol-4-yl)amino)thieno[3,2-d]pyrimidin-4-yl)-1H-pyrazol-1-yl)-1-(ethylsulfonyl)azetidin-3-yl)acetonitrile]",< 50,< 50,,< 50
"CCS(=O)(=O)N1CC(CC#N)(n2cc(-c3nc(Nc4ccc(N5CCOCC5)nc4)nc4ccsc34)cn2)C1 [Compound T-62, 2-(1-(Ethylsulfonyl)-3-(4-(2-((6-morpholinopyridin-3-yl)amino)thieno[3,2-d]pyrimidin-4-yl)-1H-pyrazol-1-yl)azetidin-3-yl)acetonitrile]",50 to 500,< 50,,50 to 500
"CCS(=O)(=O)N1CC(CC#N)(n2cc(-c3nc(Nc4cnc(N5CCOCC5)nc4)nc4ccsc34)cn2)C1 [Compound T-63, 2-(1-(Ethylsulfonyl)-3-(4-(2-((2-morpholinopyrimidin-5-yl)amino)thieno[3,2-d]pyrimidin-4-yl)-1H-pyrazol-1-yl)azetidin-3-yl)acetonitrile]",500 to 1000,< 50,,500 to 1000
"CCS(=O)(=O)N1CC(CC#N)(n2cc(-c3nc(Nc4cnn(C5CCN(C)CC5)c4)nc4ccsc34)cn2)C1 [Compound T-64, 2-(1-(Ethylsulfonyl)-3-(4-(2-((1-(1-methylpiperidin-4-yl)-1H-pyrazol-4-yl)amino)thieno[3,2-d]pyrimidin-4-yl)-1H-pyrazol-1-yl)azetidin-3-yl)acetonitrile]",< 50,< 50,,< 50

# Other lines, results leading:
IC50 [1] [nM],IC50 [2] [nM],IC50 [3] [nM],"IC50 [3, 4] [nM]",SMILES
< 50,< 50,,50 to 500,"CCS(=O)(=O)N1CC(CC#N)(n2cc(-c3nc(Nc4cnn(C5CNC5)c4)nc4ccsc34)cn2)C1 [Compound T-65, 2-(3-(4-(2-((1-(Azetidin-3-yl)-1H-pyrazol-4-yl)amino)thieno[3,2-d]pyrimidin-4-yl)-1H-pyrazol-1-yl)-1-(ethylsulfonyl)azetidin-3-yl)acetonitrile]"
< 50,< 50,,< 50,"CCS(=O)(=O)N1CC(CC#N)(n2cc(-c3nc(Nc4cnn(C5CN(CC6CC6)C5)c4)nc4ccsc34)cn2)C1 [Compound T-66, 2-(3-(4-(2-((1-(1-(Cyclopropylmethyl)azetidin-3-yl)-1H-pyrazol-4-yl)amino)thieno[3,2-d]pyrimidin-4-yl)-1H-pyrazol-1-yl)-1-(ethylsulfonyl)azetidin-3-yl)acetonitrile]"
50 to 500,< 50,,< 50,"CCS(=O)(=O)N1CC(CC#N)(n2cc(-c3nc(Nc4cnn(CCCN5CCN(C)CC5)c4)nc4ccsc34)cn2)C1 [Compound T-67, 2-(1-(Ethylsulfonyl)-3-(4-(2-((1-(3-(4-methylpiperazin-1-yl)propyl)-1H-pyrazol-4-yl)amino)thieno[3,2-d]pyrimidin-4-yl)-1H-pyrazol-1-yl)azetidin-3-yl)acetonitrile]"
> 1000,50 to 500,,> 1000,"CCS(=O)(=O)N1CC(CC#N)(n2cc(-c3nc(Nc4cnn(C)c4)nc4cc(Cl)sc34)cn2)C1 [Compound T-68, 2-(3-(4-(6-Chloro-2-((1-methyl-1H-pyrazol-4-yl)amino)thieno[3,2-d]pyrimidin-4-yl)-1H-pyrazol-1-yl)-1-(ethylsulfonyl)azetidin-3-yl)acetonitrile]"
< 50,< 50,,50 to 500,"CCS(=O)(=O)N1CC(CC#N)(n2cc(-c3nc(Nc4cnn(CC(F)(F)F)c4)nc4ccsc34)cn2)C1 [Compound T-69, 2-(1-(Ethylsulfonyl)-3-(4-(2-((1-(2,2,2-trifluoroethyl)-1H-pyrazol-4-yl)amino)thieno[3,2-d]pyrimidin-4-yl)-1H-pyrazol-1-yl)azetidin-3-yl)acetonitrile]"
< 50,< 50,,< 50,"CCS(=O)(=O)N1CC(CC#N)(n2cc(-c3nc(Nc4cnn(CCOC)c4)nc4ccsc34)cn2)C1 [Compound T-70, 2-(1-(Ethylsulfonyl)-3-(4-(2-((1-(2-methoxyethyl)-1H-pyrazol-4-yl)amino)thieno[3,2-d]pyrimidin-4-yl)-1H-pyrazol-1-yl)azetidin-3-yl)acetonitrile]"
< 50,< 50,,< 50,"CCS(=O)(=O)N1CC(CC#N)(n2cc(-c3nc(Nc4cnn(CCC#N)c4)nc4ccsc34)cn2)C1 [Compound T-71, 3-(4-((4-(1-(3-(Cyanomethyl)-1-(ethylsulfonyl)azetidin-3-yl)-1H-pyrazol-4-yl)thieno[3,2-d]pyrimidin-2-yl)amino)-1H-pyrazol-1-yl)propanenitrile]"
< 50,< 50,,< 50,"CCS(=O)(=O)N1CC(CC#N)(n2cc(-c3nc(Nc4cc(C)[nH]n4)nc4ccsc34)cn2)C1 [Compound T-72, 2-(1-(Ethylsulfonyl)-3-(4-(2-((5-methyl-1H-pyrazol-3-yl)amino)thieno[3,2-d]pyrimidin-4-yl)-1H-pyrazol-1-yl)azetidin-3-yl)acetonitrile]"
50 to 500,< 50,,50 to 500,"CS(=O)(=O)CCCn1cc(Nc2nc(-c3cnn(C4(CC#N)CCC4)c3)c3sccc3n2)cn1 [Compound T-73, 2-(1-(4-(2-((1-(3-(Methylsulfonyl)propyl)-1H-pyrazol-4-yl)amino)thieno[3,2-d]pyrimidin-4-yl)-1H-pyrazol-1-yl)cyclobutyl)acetonitrile]"
< 50,< 50,,< 50,"Cn1cc(Nc2nc(-c3cnn(C4(CC#N)CN(S(C)(=O)=O)C4)c3)c3sccc3n2)cn1 [Compound T-74, 2-(3-(4-(2-((1-Methyl-1H-pyrazol-4-yl)amino)thieno[3,2-d]pyrimidin-4-yl)-1H-pyrazol-1-yl)-1-(methylsulfonyl)azetidin-3-yl)acetonitrile]"
